In US7342137B1, “Cyclohexenone compounds from Antrodia camphorata and application thereof” (Golden Biotechnology Corporation, priority 2007, dated 2008) one finds IC50 data, which are given here for one compound.

What all share (format): cell-based
The subject of assay [1] is human hepatic cancer cells, Hep 3B. The assay can be described thus: In vitro Lovastatin add-on study (MTT), Hep 3B. The note with it: Homo sapiens, Hep3B, 0.0043 μg/ml Lovastatin + formula 2. Here is the method: The experiment was also carried out according to NCI anti-cancer drug screen in vitro model. The human hepatic cancer cells, Hep 3B and Hep G2 […] were separately cultivated in media containing fetal calf serum for 24 hours. The proliferated cells were washed once with PBS, then treated with 1× trypsin-EDTA and centrifuged at 1200 rpm for 5 minutes. The supernatant was discarded and the cell pellet was resuspended in 10 ml of fresh culture medium by gently shaking. The Hep 3B cells were treated with 0.0043 μg/ml of Lovastatin for 72 hours and Hep G2 cells were treated with 0.0017 μg/ml of Taxol for 72 hours before placing in a 96-well plate. 4-hydroxy-2,3-dimethoxy-6-methyl-5(3,7,11-trimethyl-dodeca-2,6,10-trienyl)-cyclohex-2-enone obtained from example 1 were added respectively into each of the 96 wells at the following concentrations: 0 μg/ml (the control group); 30, 10, 3, 1, 0.3, 0.1 and 0.03 μg/ml (the experiment group). The cells were incubated at 37° C. in a 5% CO2 incubator for 48 hours. MTT was added in a concentration of 2.5 mg/ml into each well in dark and reacted for 4 hours, followed by the addition of 100 μl of lysis buffer to stop the reaction. The plates were read on an ELISA reader at wavelength of 570 nm to determine the survival rates.

Assay [2] relates to human hepatic-cancer cells, Hep 3B. Description: In vitro survival assay (MTT), hepatic cancer cells Hep 3B. Conditions: Hep3B, 48 hours incubation. Here is the method: The NCI anti-cancer drug screen model was also adopted to test the anti-cancer effect of the compound isolated from example 1 in the present invention. The isolated compound of 4-hydroxy-2,3-dimethoxy-6-methyl-5(3,7,11-trimethyl-dodeca-2,6,10-trienyl)-cyclohex-2-enone from example 1 was added into the culture media of human hepatic-cancer cells, Hep 3B or Hep G2, for tumor cell survival assay.
(§1) The human hepatic-cancer cells, Hep 3B and Hep G2, were separately cultivated in media containing fetal calf serum for 24 hours. The proliferated cells were washed once with PBS, then treated with 1× trypsin-EDTA and centrifuged at 1200 rpm for 5 minutes. The supernatant was discarded and the cell pellet was resuspended in 10 ml of fresh culture medium by gently shaking. The cells were placed in a 96-well plate. Ethanol extracts of Antrodia camphorata (the control group, total extracts of Antrodia camphorata without purification) were added into each of the 96 wells at the following concentrations: 30, 10, 3, 1, 0.3, 0.1 and 0.03 μg/ml, respectively, while 4-hydroxy-2,3-dimethoxy-6-methyl-5(3,7,11-trimethyl-dodeca-2,6,10-trienyl)-cyclohex-2-enone (the experiment group) were added into each of the 96 wells at the following concentrations: 30, 10, 3, 1, 0.3, 0.1 and 0.03 μg/ml, respectively. […] The plates were read on an ELISA reader at wavelength of 570 nm to determine the survival rates.

For assay [3], the system named is human prostate cancer cells, LNCaP. The assay can be described thus: In vitro survival assay (MTT), prostate cancer cells LNCaP. The note with it: 48 hours incubation. The protocol: The NCI anti-cancer drug screen model was also adopted to test the anti-cancer effect of the compound isolated from example 1 in the present invention. The isolated compound of 4-hydroxy-2,3-dimethoxy-6-methyl-5(3,7,11-trimethyl-dodeca-2,6,10-trienyl)-cyclohex-2-enone from example 1 was added into the culture media of human prostate cancer cells, LNCaP or DU-145, for tumor cell survival assay.
as §1, with “LNCaP” for “Hep 3B”, “DU-145,” for “Hep G2,”, “or” for “were added into each of the 96 wells at the following concentrations: 30, 10, 3, 1, 0.3, 0.1 and 0.03 μg/ml, respectively, while”, “respectively. The cells were incubated at 37° C. in a 5% CO2 incubator for 48 hours.” for “respectively.”

Consider `COC1=C(OC)C(O)C(C/C=C(\C)CC/C=C(\C)CCC=C(C)C)C(C)C1=O` (stereo not drawn) [formula 2, 4-hydroxy-2,3-dimethoxy-6-methyl-5(3,7,11-trimethyl-dodeca-2,6,10-trienyl)-cyclohex-2-enone], for which the values for the IC50 in assay [1], in assay [2] and in assay [3] were 2 ng/mL, 5 ng/mL and 2380 ng/mL, respectively.

As a reminder, the IC50 is the concentration needed to halve the response being measured.
